Measured values as given in patent publication US20260297136A1, “PEPTIDES WITH LIPOLYTIC, ANTI-LIPOGENIC, ANTIFIBROTIC AND ANTI-INFLAMMATORY ACTIVITY” (FUNDACIÓ HOSPITAL UNIVERSITARI VALL D'HEBRON - INSTITUT DE …, priority 2023, published 2026).

Experiments:
human mature adipocytes = assay: Lipolysis in human mature adipocytes (glycerol production), Example 3; format: cell-based; conditions: 16 h
Method: FIG. 4 Mature human subcutaneous adipocytes were treated with vehicle (DMSO), 1 μM of Isoproterenol, Semaglutide (10 nM) or GP6 (25, 50 or 100 μg/ml) for 16 h. Glycerol concentration was assessed using a Lipolysis Assay Kit (Tebu-bio).
Human preadipocytes and cell culture reagents were from purchased from Tebu-Bio (Tebu-bio, Barcelona, Spain) and differentiation protocol was done following the manufacturer's instructions. Human adipocytes were maintained in a humidified incubator with 5% CO2 at 37° C. (Sex hormone-binding globulin overexpression protects against high-fat diet-induced obesity in transgenic male mice. Saez-Lopez C, Villena J A, Simo R, Selva D M. J Nutr Biochem. 2020 November; 85:108480. doi: 10.1016/j.jnutbio.2020.108480).
Lipolysis assays were performed using a Lipolysis Kit (Tebu-Bio) following the manufacturer's instructions as previously described by Saez-Lopez and collaborators (Sex hormone-binding globulin overexpression protects against high-fat diet-induced obesity in transgenic male mice. Saez-Lopez C, Villena J A, Simo R, Selva D M. J Nutr Biochem. 2020 November; 85:108480. doi: 10.1016/j.jnutbio.2020.108480.)

[1] = tested on: obesity and fatty liver disease mouse model; assay: Preventive effects in an obesity and fatty liver disease mouse model, Example 4; format: in vivo, C57BL6/J male mice; conditions: 20 mg/kg/day sc, 8 weeks
Method: (§1) C57BL6/J male mice were purchased and kept for quarantine and acclimatization for a period of about 7 days before initiation of every experiment. Mice were housed in clean and sterilized mice cages and maintained in a controlled environment with 22+3° C. temperature, 50+20% humidity, a light/dark cycle of 12 hours each and 15-20 fresh air changes per hour.
For Obesity and NAFLD induction, the animals were fed ad libitum, either with chow diet (150SP-10, Safe Diets) or 45% high-fat diet (TD.190179, Envigo) plus 30% fructose (F0127, Sigma Aldrich) in drinking water for 8 weeks in the daily presence of vehicle or a subcutaneous injection of GP6 (20 mg/kg/day). A group of mice (n=18) was randomly divided in two groups of 9 mice each. Both groups were fed with high fat diet and 30% fructose in the drinking water for 8 weeks to develop obesity and fatty liver disease. One group was treated with daily subcutaneous injections of vehicle (water) and the other with daily subcutaneous injection of GP6 (20 mg/kg/day) during the 8 weeks that last the experiment.
At the end of the experiment mice were sacrificed, serum samples were extracted, tissues were weighted and part was fixed in paraformaldehyde for histology studies and part immediately frozen at −80 C for mRNA and protein expression studies as well as assessment of triglycerides.
For histological studies, livers and adipose tissue were fixed in 4% paraformaldehyde for 24 hours and embedded in paraffin. Serial […] sections were used for histological examination and stained with hematoxylin eosin (H&E) and Picrosirius red for histological examination following standard procedures. Briefly, sections were alcohol-xylol hydrated at room temperature, and subsequently, they were stained at room temperature in a solution of 0.1% Direct Red 80 (Sigma-Aldrich) in a saturated aqueous solution of [COMPOUND LEFT OUT] (Sigma-Aldrich) for 1 h. Following that, sections were rinsed twice in 0.5% acetic acid or 5 min, alcohol-xylol dehydrated and covered with Eukitt mounting medium (Sigma-Aldrich). These sections were examined with an Olympus BX61 microscope. Six random fields at 4× magnification from each slice were quantified using ImageJ software to determine the liver collagen deposition as the red stained area in the image. The stage of liver steatosis and/or fibrosis was assessed blinded by an experienced pathologist according to the NASH-clinical research network scoring system (Design and validation of a histological scoring system for nonalcoholic fatty liver disease. Kleiner D E, Brunt E M, Van Natta M, Behling C, Contos MJ, Cummings O W, Ferrell L D, Liu Y C, Torbenson M S, Unalp-Arida A, Yeh M, McCullough A J, Sanyal AJ; Nonalcoholic Steatohepatitis Clinical Research Network. Hepatology. 2005 June; 41(6):1313-21. doi: 10.1002/hep.20701; Transforming growth factor-beta 1: A new factor reducing hepatic SHBG production in liver fibrosis. Briansó-Llort L, Fuertes-Rioja L, Ramos-Perez L, Salcedo-Allende M T, Hernandez C, Simo R, Selva D M. J Cell Physiol. 2022 September; 237(9):3598-3613. doi: 10.1002/jcp.30818). […]
Hepatic TG content was measured from liver extracts using a Triglyceride Assay Kit (ab65336) following the manufacture's instructions.
Total RNA was extracted from mouse tissues using TRIzol reagent (Invitrogen SA). Reverse transcription was performed at 42° C. for 50 minutes using […] of total RNA, 200 U of Superscript II, and an oligo-dT primer and reagents provided by Invitrogen. An aliquot of the reverse transcription product was amplified in a […] reaction using SYBRGreen (Invitrogen SA) with appropriate oligonucleotide primer pairs corresponding mouse ACC, FAS, ACLY, PPARG, Col1A1, F4/80, TNFα, IL1β, IL6, TGFβ1, Leptin, Adiponectin and 18S (shown in table 7). […]

[2] = tested on: CCl4-induced fibrosis mouse model; assay: Preventive effects in a CCl4-induced fibrosis mouse model, Example 5; format: in vivo, C57BL6/J male mice; conditions: 20 mg/kg/day sc, vs vehicle
Method: as §1
Preventive effect of a daily subcutaneous injection of GP6 (20 mg/kg/day) in a mouse model of fibrosis induced by twice a week intraperitoneal injection of CCl4 (1 ml/Kg diluted in olive oil 1:5) during a 4 weeks period. A group of control mice (n=6) was treated with daily subcutaneous injections of vehicle (water) and the other group (n=10) with daily subcutaneous injection of GP6 (20 mg/kg/day) during 10 weeks.
At the end of the experiment mice were sacrificed, serum samples were extracted, tissues were weighted and part was fixed in paraformaldehyde for histology studies and part immediately frozen at −80 C for mRNA and protein expression studies.
The Histology studies, AST and ALT measurements as well the RNA analysis were performed as described in example 4.

[3] = blind pathologist, histology reduction confirmed

CC[C@@H](C)[C@@H](NC(=O)[C@H](NC(=O)CNC(=O)[C@@H](CCC(=O)O)NC(=O)[C@H]1CCCN1C(=O)[C@@H](CC(=O)O)NC(=O)[C@@H](Cc1c[nH]c2ccccc12)NC(=O)[C@H](NC(=O)[C@@H](CCCNC(=N)N)NC(=O)[C@H](NC(=O)[C@@H](CCC(=O)O)NC(=O)[C@@H](Cc1ccccc1)NC(=O)[C@@H](CO)NC(=O)[C@@H](CO)NC(=O)[C@@H](CO)NC(=O)[C@H](NC(=O)[C@@H](CCCCN)NC(=O)[C@H](N)[C@H](C)O)[C@H](C)O)C(C)C)[C@H](C)O)C(C)C)C(=O)N[C@H](Cc1ccccc1)C(=O)N[C@H](Cc1ccc(O)cc1)C(=O)O [GP6]
increase of glycerol production (lipolysis) (human mature adipocytes; 25 μg/ml): 200%
increase of glycerol production (lipolysis) (human mature adipocytes; 50 μg/ml): 270%
increase of glycerol production (lipolysis) (human mature adipocytes; 100 μg/ml): 315%
lipolysis induction compared with Semaglutide (human mature adipocytes; GP6 25, 50 or 100 μg/ml versus Semaglutide 10 nM): performing more efficiently than Semaglutide
ACC mRNA levels in liver ([1]; vs vehicle): reduced the mRNA levels
F480 mRNA levels in adipose tissue ([1]; vs vehicle): reduced expression
F480 mRNA levels in hepatic tissue ([1]; vs vehicle): reduced expression
FAS mRNA levels in liver ([1]; vs vehicle): reduced the mRNA levels
PPARγ mRNA levels in liver ([1]; vs vehicle): reduced the mRNA levels
Total body weight ([1]; vs vehicle): significantly reduced
adipose tissue fibrosis (Col1A1 mRNA expression in adipose tissue) ([1]; vs vehicle): reduced adipose tissue fibrosis
hepatic expression of IL1β ([1]; vs vehicle): reduced the hepatic expression
hepatic expression of IL6 ([1]; vs vehicle): reduced the hepatic expression
hepatic expression of TNFα ([1]; vs vehicle): reduced the hepatic expression
total liver weight ([1]; vs vehicle): significantly reduced
weight increment (weight at week 8-weight at week 0) ([1]; vs vehicle): significantly reduced
weight of brown adipose tissue ([1]; vs vehicle): significantly reduced
weight of subcutaneous adipose tissue ([1]; vs vehicle): significantly reduced
weight of visceral adipose tissue ([1]; vs vehicle): significantly reduced
hepatic lipid accumulation (histology) ([1]; vs vehicle, H&E): reduced significantly
Brunt score [1, 3]: confirmed
Steatosis score [1, 3]: confirmed
percentage of steatosis [1, 3]: confirmed
hepatic triglyceride content (Liver TAG) ([1]; histology reduction confirmed): confirmed
liver weight [2]: did not show any significance between groups
reduction of ALT serum levels [2]: ~50%
reduction of Collagen (Col1A1) expression in hepatic tissue [2]: more than 50%
reduction of hepatic fibrosis (picrosirius staining, ImageJ) [2]: approximately 37%
reduction of hepatic inflammation (F4/80 mRNA levels) [2]: more than 50%
total body weight lost induced by CCl4 [2]: mice treated with vehicle lost more body weight when compared with GP6 treated mice
